Results published in US20040127518A1, “Modulation of anxiety through blockade of anandamide hydrolysis” (priority 2002, published 2004).

Tests used:
FAAH = molecular target: T1, FAAH (Rattus norvegicus, UniProt P97612); assay: FAAH-catalyzed hydrolysis of [3H]anandamide by intact cortical neurons in primary cultures; assay type: cell-based; details: n=8, read-out: IC50, hydrolysis of exogenous [3H]anandamide
T1 sequence (P97612 1-579): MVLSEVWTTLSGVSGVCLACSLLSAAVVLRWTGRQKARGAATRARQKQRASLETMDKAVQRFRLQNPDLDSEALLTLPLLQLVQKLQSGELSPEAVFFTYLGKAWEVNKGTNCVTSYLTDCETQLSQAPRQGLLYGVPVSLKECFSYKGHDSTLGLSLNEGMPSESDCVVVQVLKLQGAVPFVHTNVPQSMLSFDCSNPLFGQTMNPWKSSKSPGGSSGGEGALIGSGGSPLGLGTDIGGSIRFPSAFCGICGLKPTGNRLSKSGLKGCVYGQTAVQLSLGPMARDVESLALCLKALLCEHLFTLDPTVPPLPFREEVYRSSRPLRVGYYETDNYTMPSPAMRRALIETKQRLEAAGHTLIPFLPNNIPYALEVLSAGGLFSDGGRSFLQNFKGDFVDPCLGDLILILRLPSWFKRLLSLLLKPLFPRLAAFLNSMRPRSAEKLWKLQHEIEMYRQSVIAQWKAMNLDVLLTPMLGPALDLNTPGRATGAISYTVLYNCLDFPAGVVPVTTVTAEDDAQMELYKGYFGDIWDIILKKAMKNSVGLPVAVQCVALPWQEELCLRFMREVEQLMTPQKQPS

[1] = Isolation-induced ultrasonic vocalization emission in rat pups; assay type: in vivo; details: 5 mg kg-1
anandamide transport = assay: [3H]anandamide transport assay in human astrocytoma cells
Text: We prepared cell fractions from rat brain homogenates, and assayed membrane FAAH activity and cytosol MGL activity using anandamide [ethanolamine-3H] (American Radiolabeled Chemicals, ARC (St. Louis Mo.), 60 Ci/mmol) and 2-mono-oleoyl-glycerol-[glycerol-1,2,3^−3H] (ARC, St. Louis Mo., 20 Ci/mmol), respectively, as substrates (Dinh, T. Proc. Natl. Acad. Sci. U.S.A. (2002)). We conducted [^3H]anandamide transport assays in human astrocytoma cells (Piomelli, D. et al., Proc. Natl. Acad. Sci. U.S.A., 96, 5802-5807 (1999)); CB1 and CB2 binding assays in rat cerebellar membranes and CB2-overexpressing Chinese hamster ovary cells (Receptor Biology-Perkin Elmer, Wellesley, Mass.), respectively, using [^3H]WIN-55212-2 (NEN-Dupont, Boston, Mass., 40-60 Ci/mmol) as a ligand (Devane, W. A. et al. Science, 258, 1946-1949 (1992)); cholinesterase assays with a commercial kit (Sigma, St. Louis, Mo.), using purified enzymes (electric eel acetylcholinesterase type V-S and horse serum cholinesterase; both from Sigma, St. Louis, Mo.) and following manufacturer's instructions.

[2] = Body temperature (rectal probe); assay type: in vivo; details: UCM532 10 mg kg-1 i.p.; UCM597 0.3 mg kg-1 i.p.
Text: We dissolved all compounds in saline/Tween 80/polyethylenglycol (90/5/5) and administered them by i.p. injection immediately before tests. We measured body temperature with a rectal probe (Type T, Copper-Costantan Thermocouple-Physitemp Instruments INC, Clifton, N.J.) connected to a digital thermometer (model BAT-12 Physitemp Instruments INC, Clifton, N.J.); and catalepsy using the procedure described in Tseng and Craft (Tseng, A. H. et al., Eur. J. Pharmacol., 430, 41-47 (2001)).

Structure (SMILES): CCCCNC(=O)Oc1ccc(OCc2ccccc2)cc1 [UCM532, n-Butylcarbamic acid 4-benzyloxyphenyl ester]
- IC50 (FAAH): 214 ± 79 nM
- isolation-induced ultrasonic calls [1]: strongly reduced
- AT: maximal concentration of FAAH inhibitor tested (anandamide transport; Table 2): >300 µM
- effect on anandamide transport (in words) (anandamide transport; human astrocytoma cells): no effect
- body temperature / hypothermia, compound alone [2]: no
